These results are taken from patent US20150079105A1, “TREATMENT OF ACUTE INFLAMMATION IN THE RESPIRATORY TRACT” (UCL Business PLC, priority 2012, published 2015).

“Also recorded” adds a separate entry of the source.

One experiment relates to naïve mice. As to the kind of experiment: Intranasal administration of recombinant CCL2 or CCL7 to naïve mice, BAL fluid cell counts. The class given is in vivo. As to conditions: 500 ng/mouse i.n., 3 h; for total cell number recovered from BAL fluid: compared to saline treated controls. Here is the method:
FIG. 15. Naïve mice were administered with either rCCL2 or rCCL7 (500 ng/mouse, i.n.) and 3 h later BAL fluid was recovered. BAL fluid total cell counts (A) and total neutrophils (B) were calculated from differential cell counts performed on cytospin preparations. The percentage of neutrophils in BAL fluid was also calculated (C). Differential cell counts were performed on cytospin preparations following saline (D), rCCL2 (E) or rCCL7 (F) administration. Data were analysed by one way ANOVA with Newman-Keuls post hoc test: *p<0.05, **p<0.01,*** p<0.001. Arrows indicate: N, neutrophil; M, monocyte/macrophage.
In order to determine the whether CCL2 and CCL7 are able to directly recruit leukocytes into the lung, recombinant CCL2 or CCL7 was administered into the lungs of naïve mice and sampled the BAL fluid after 3 h. […] Differential cell counts were performed on cytospin preparations following saline (FIG. 15D), rCCL2 (FIG. 15E) or rCCL7 (FIG. 15F) administration.

The subject of a further experiment is human neutrophils. Description: Human neutrophil chemotaxis (ChemoTX) towards recombinant human chemokines. The class given is cell-based. As to conditions: 50 ng/ml; 45 min; 5×10^4 neutrophils per well. Here is the method: FIG. 17. Healthy human volunteers were challenged with nebulized 0.9% saline […] (final LPS dose was 50 μg) and BAL fluid collected 6 hours later. CCL7 protein levels in BAL fluid from saline-treated or LPS-challenged human volunteers were measured by ELISA (a). Human neutrophil chemotaxis was measured across 5 μm membranes (ChemoTX, NeuroProbe) in response to recombinant human (rh) CXCL8 or rhCCL7 (b). Neutrophil chemotaxis towards LPS-treated human BAL fluid was measured in the presence of neutralizing anti-CXCL8 or anti-CCL7 antibodies (c). BAL fluid was collected from patients suffering with ALI on intensive care units. CCL7 protein (d) and CCL2 protein (f) in ALI BAL fluid was measured by ELISA. Neutrophil chemotaxis towards BAL fluid obtained from patients with ALI was measured in the presence of neutralizing anti-CXCL8 and ant-CCL7 antibodies (e). […]
Although it is widely accepted that CXCL8 (IL-8) is an important chemokine in human neutrophilic lung disease (Miller, E. J. et al Am. Rev. Respir. Dis. 146, 427-432 (1992)), it is far from clear whether other chemokines are associated with disease pathogenesis. […] For these studies, CCL7 was measured by ELISA in BAL fluid from healthy volunteers challenged with LPS (50 μg) at 6 hours as previously described (Shyamsundar, M. et al Am. J. Respir. Crit Care Med. 179, 1107-1114 (2009)). […]

The test system of another experiment is LPS challenged mice. Description: LPS-induced acute lung inflammation in mice: BAL fluid cell counts, MPO, serum albumin. The format is in vivo. As to conditions: 10 mg/kg i.p. immediately after LPS challenge; 3 h.

Consider rCCL2: recombinant CCL2, for which, in the experiment on naïve mice, the “recruitment of neutrophils into lung airspaces” value is on record as “resulted in the recruitment of a neutrophils” and the “total cell number recovered from BAL fluid” value is listed as “increased; also recorded: greater number of leukocytes compared to rCCL7”.

Turning to rCCL7: recombinant CCL7, in the experiment with naïve mice, the “neutrophils as a percentage of total cells recovered from BAL fluid” value was “preferential accumulation of neutrophils compared to rCCL2”, the “recruitment of neutrophils into lung airspaces” value is recorded as “resulted in the recruitment of a neutrophils” and the “total cell number recovered from BAL fluid” value is listed as “increased”.

With “CXCL8: Recombinant human CXCL8 (IL-8) (Peprotech)”, the “migration of neutrophils compared to media alone” value in the experiment with human neutrophils is on record as “increased”.

With “CCL7: Recombinant human CCL7 (Peprotech)”, the “migration of neutrophils compared to media alone” value with human neutrophils is recorded as “did not influence”.

Consider `CCOC(=O)N[C@@H]1CC[C@@H]2[C@@H](C1)C[C@H]1C(=O)O[C@H](C)[C@H]1[C@H]2/C=C/c1ccc(-c2cccc(F)c2)cn1` [SCH530348], for which, in the experiment with LPS challenged mice, the “neutrophil numbers in the airspaces (BAL fluid)” value is reported as “significantly decreased” and the “total cell numbers in the airspaces (BAL fluid)” value is listed as “significantly decreased”.
